From patent US20030118584A1, “Restoration of platelet aggregation by antibody administration after GPIIB/IIIa antagonist treatment” (G.D. Searle & Co., priority 1998, published 2003)

Columns and labels:
[1] = system: heparinized human whole blood; experiment: Activated clotting time (ACT) in heparinized human whole blood; type: cell-based; settings: 1.4 Units/mL heparin; varying concentrations; FIG. 1
From the text: This process can be used to calculate a standardized concentration curve for various known concentrations of anti-platelet compounds. The process can also be used to measure activated clotting times for use in calculating the ACT number for the processes of the invention.
A. Blood was drawn from a human volunteer into a syringe containing heparin. The heparin to whole blood ratio was 1:10 such that the final concentration of heparin in the syringe was 1.4 Units/mL.
B. The Hemochron™-8000 was set up to run ACT using the P-215 tubes from the same manufacturer (International Technidyne).
A. A 1 mL sample of the above heparinized blood was admixed and maintained (incubated) with 2.5-10 μl of antagonist compound or saline for 5 minutes at room temperature.
B. The Hemochron™ was started as 400 μl of the test sample was pipetted into the P-215 tube. The tube contents were gently mixed, placed into the Hemochron™ and turned one revolution until the light on the instrument came on.
C. Step B was repeated for the second channel of the instrument within 30 seconds to give an average activated clotting time. […]
The activated clotting time was first measured (in seconds) for control whole blood from each donor containing only 1.4 Units/mL of heparin. The clotting times were then measured as in Example 1 by varying concentrations of antiplatelet compounds B and D in addition to heparin for each donor. […]

[2] = Total and free plasma levels of compound B in dog (HPLC); type: in vivo; settings: throughout the three bolus infusions of Mab 9F7, FIG. 11
Protocol: In a second study, a dog was treated with a capsule of 10 mg of compound A, BID for 4 days (15 mg on day 3) prior to antibody testing. […] Four hours after the last oral dose of compound A, a dose of pentobarbitol and the monoclonal […] antibody (P187-9F7) was infused by a i.v. bolus injection. Each bolus contained a 5-fold molar excess over drug plasma levels (about 50 mg of Mab 9F7). A control dog was given identical amounts of antibody without compound A oral dosing. Blood samples were collected for aggregation assays at 5, 15, 30 and 60 minutes after each bolus administration of antibody, plasma levels of Mab 9F7, and total and free plasma levels of compound B.
This method involves the extraction of compound B and an internal standard (compound F, shown hereinafter) from acidified dog plasma with a C18 solid phase extraction column. Analysis is by reverse phase high performance liquid chromatography with fluorescence detection. […] Quality control pools were prepared in dog plasma and quantified using the human calibration curve. A linear weighted (1/concentration squared) least squares regression analysis was used to quantify samples. This method was validated with a minimum quantifiable level of 1.00 ng/mL. […]
Removed the samples to be analyzed from the freezer and thawed. […] The filtrate was then analyzed by the method given below. […]

[3] = Elimination of compounds B and D from the circulation; type: in vivo; settings: for Route of removal from the circulation: in vivo; for Change in elimination half-life with decreased creatinine clearance: renal impairment
From the text: In renally impaired patients, reversal of the functionality of these compounds would be especially useful in an emergency situation where rapid removal of active compound is desired.

[4] = Plasma half-life of compound B in guinea pig; type: in vivo
Protocol: Therefore, follow-up studies were conducted in dogs because the half-life of compounds B in this species is more similar to the human half-life than is the half-life in the guinea pig.
The half life of compound B was determined by fitting the plasma concentrations and determining the elimination rate constant ke. The half-life is calculated as t½=0.693/ke.

GPIIb/IIIa = GPIIb/IIIa (Homo sapiens, UniProt P05106+P08514); settings: when administered; cited from earlier work
platelet aggregation = system: platelet aggregation; design: dose or concentration left out as unconfirmed; settings: anesthetized dogs; for up to 210 minutes; cited from earlier work

Molecule | Effect of antiplatelet compound concentration on activated clotting time [1] | Levels of total compound B (free plus antibody bound) [2] | Route of removal from the circulation [3] | Change in elimination half-life with decreased creatinine clearance [3] | Half-life [4] | Effect on activated clotting times (GPIIb/IIIa) | Inhibition of platelet aggregation, measured ex vivo (platelet aggregation)
C#C[C@H](CC(=O)O)NC(=O)CCC(=O)Nc1ccc(C(=N)N)cc1 [compound B, 3S-[[4-[[4-(aminoiminomethyl)phenyl]amino]-1,4-dioxobutyl]amino]-4-pentynoic acid] | directly affect the activated clotting time | increased throughout the three infusions | almost exclusively by the kidney | appreciable increases | short half-life | – | –
N=C(N)c1ccc(N2CC[C@H](NC(=O)NCCC(=O)O)C2=O)cc1 [compound D, 3-[[[[1-[4-(aminoiminomethyl)phenyl]-2-oxo-pyrrolidin-3S-yl]amino]carbonyl]amino]propanoic acid] | directly affect the activated clotting time | – | almost exclusively by the kidney | appreciable increases | – | – | –
C7E3: anti-GPIIb/IIIa antibody (Centocor) | – | – | – | – | – | increase of activated clotting times | –
cyclic [D-2-aminobutyryl-N2-methyl-L-arginyl-glycyl-L-aspartyl-3-aminomethyl-benzoic acid] methanesulfonic acid salt [DMP728] | – | – | – | – | – | – | nearly complete inhibition
